Assay results as given in US4504580A, “Antibiotics produced by fermentation of a novel strain of Streptomyces hygroscopicus” (Bristol-Myers Company, priority 1983, dated 1985).
Values after ≈ are worked out from the molar mass of the structure shown. “Also recorded” adds a separate entry of the source. Where two headings read alike, the source gives them in different places.

Experiments:
[1] = test system: Escherichia coli JR66/W677; test: MIC, aminoglycoside-resistant E. coli JR66/W677; format: cell-based; settings: Escherichia coli, JR66/W677
Experimental: (§1) The minimum inhibitory concentrations (MIC) of Bu-2659A, B, C, D and E were determined for a variety of gram-positive and gram-negative bacteria by the serial two-fold agar dilution method using the Steer's multi-inoculating apparatus. The inoculum was standardized as a 10^4 dilution of an overnight culture of the test organisms in Heart Infusion Broth (Difco). […] Reference antibiotics utilized in these tests included commercially available neomycin as well as its components, neomycins B and C [as used herein, the term "neomycin" means the commercial product containing neomycins B and C at an approximate ratio of 7:3], paromomycin [the commercial product containing >90% of paromomycin I and <10% of paromomycin II] and ribostamycin.

[2] = test system: Staphylococcus aureus A20239; test: MIC, aminoglycoside-resistant S. aureus A20239; format: cell-based; settings: Staphylococcus aureus, A20239; Table 9; inactivating enzyme APH(3')-I,II; Mueller-Hinton agar; read-out: MIC
Experimental: as §1

[3] = test system: Streptococcus pneumoniae Type I; test: MIC by serial two-fold agar dilution, S. pneumoniae Type I; format: cell-based; settings: Streptococcus pneumoniae; Table 8; GC medium; read-out: MIC
Experimental: as §1

[4] = test system: Pseudomonas aeruginosa A20896; test: MIC, aminoglycoside-resistant P. aeruginosa A20896; format: cell-based; settings: Pseudomonas aeruginosa, A20896; Table 9; inactivating enzyme AAC(3)-II; Mueller-Hinton agar; read-out: MIC
Experimental: as §1

[5] = test system: Mycobacterium smegmatis 607; test: MIC by serial two-fold agar dilution, M. smegmatis 607; format: cell-based; settings: Mycolicibacterium smegmatis, 607; Table 8; No. 1001 medium; read-out: MIC
Experimental: as §1

[6] = test system: Escherichia coli NR79/W677; test: MIC, aminoglycoside-resistant E. coli NR79/W677; format: cell-based; settings: Escherichia coli, NR79/W677
Experimental: as §1

[7] = test system: Escherichia coli JR35/C600; test: MIC, aminoglycoside-resistant E. coli JR35/C600; format: cell-based; settings: Escherichia coli, JR35/C600
Experimental: as §1

[8] = test system: Micrococcus luteus PCI 1001; test: MIC by serial two-fold agar dilution, M. luteus PCI 1001; format: cell-based; settings: Micrococcus luteus, PCI1001; Table 7; Mueller-Hinton agar; read-out: MIC
Experimental: as §1

[9] = test system: E. coli Juhl, K. pneumoniae D-11, P. mirabilis A9906, S. aureus Smith and S. pyogenes A20201; test: Experimental systemic infection in mice, overall; format: in vivo
Experimental: (§2) The in vivo activity of Bu-2659A was assessed by experimental systemic infection in mice. The pathogenic bacteria used in the in vivo tests were E. coli Juhl, K. pneumoniae D-11, P. mirabilis A9906, S. aureus Smith and S. pyogenes A20201. Mice were challenged intraperitoneally with approximately 100×LD50 dose of the pathogens in a 5% suspension of hog gastric mucin (American Laboratories, Omaha, Neb.). A single intramuscular treatment with the antibiotic was given immediately after the bacterial challenge. […] Neomycin was comparatively tested as a reference compound. […] In terms of PD50 value Bu-2659A was about one-half as active as neomycin against infections with S. aureus and S. pyogenes.

[10] = test system: Neisseria meningitidis A21496; test: MIC by serial two-fold agar dilution, N. meningitidis A21496; format: cell-based; settings: Neisseria meningitidis, A21496; Table 8; GC medium; read-out: MIC
Experimental: as §1

[11] = test system: resistant strains which produce APH(3') or AAC(3); test: Susceptibility of aminoglycoside resistant organisms (MIC), overall, Table 9; format: cell-based; settings: several resistant strains which produce APH(3') or AAC(3)
Experimental: as §1

[12] = test system: Bacillus subtilis PCI 219; test: MIC by serial two-fold agar dilution, B. subtilis PCI 219; format: cell-based; settings: Bacillus subtilis, PCI219; Table 7; Mueller-Hinton agar; read-out: MIC
Experimental: as §1

[13] = test system: Neisseria gonorrhoeae A20143; test: MIC by serial two-fold agar dilution, N. gonorrhoeae A20143; format: cell-based; settings: Neisseria gonorrhoeae, A20143; Table 8; GC medium; read-out: MIC
Experimental: as §1

[14] = test system: Klebsiella pneumoniae D-11; test: Experimental systemic infection in mice, K. pneumoniae D-11; format: in vivo; settings: Klebsiella pneumoniae, D11, 96 h, im, single treatment, 4 days, read-out: PD50
Experimental: as §2

Escherichia coli ML 1630 = test: MIC, aminoglycoside-resistant E. coli ML 1630; format: cell-based; settings: Escherichia coli, ML1630; Table 9; inactivating enzyme APH(3')-I; Mueller-Hinton agar; read-out: MIC
Experimental: as §1

Proteus mirabilis A9906 = test: Experimental systemic infection in mice, P. mirabilis A9906; format: in vivo; settings: Proteus mirabilis, A9906, 96 h, im, single treatment, 4 days, read-out: PD50
Experimental: as §2

[15] = test system: Haemophilus influenzae A9729; test: MIC by serial two-fold agar dilution, H. influenzae A9729; format: cell-based; settings: Haemophilus influenzae, A9729; Table 8; GC medium; read-out: MIC
Experimental: as §1

[16] = test system: Staphylococcus aureus Smith; test: Experimental systemic infection in mice, S. aureus Smith; format: in vivo; settings: Staphylococcus aureus, 96 h, im, single treatment, 4 days, read-out: PD50
Experimental: as §2

Acute toxicity in mice = format: in vivo; settings: for LD50: mouse, in vivo, mice, read-out: LD50
Experimental: The acute toxicity of Bu-2659A was determined in mice by intravenous, intraperitoneal and subcutaneous routes. Neomycin also was tested for comparison purposes. […] The toxicity of Bu-2659A was approximately 1/3 that of neomycin in terms of LD50 values, thus presenting a potential clinical advantage for Bu-2659A.

Escherichia coli Juhl [17] = test: Experimental systemic infection in mice, E. coli Juhl; format: in vivo; settings: Escherichia coli, 96 h, im, single treatment, 4 days, read-out: PD50
Experimental: as §2

Mycobacterium ranae = test: MIC by serial two-fold agar dilution, M. ranae; format: cell-based; settings: Mycobacterium; Table 8; No. 1001 medium; read-out: MIC
Experimental: as §1

[18] = test system: gram-positive and gram-negative bacteria; test: In vitro antibacterial spectra (MIC), overall comparison, Table 7; format: cell-based; settings: Table 7 organisms
Experimental: as §1

[19] = test system: Staphylococcus aureus D136; test: MIC by serial two-fold agar dilution, S. aureus D136; format: cell-based; settings: Staphylococcus aureus, D136; Table 7; Mueller-Hinton agar; read-out: MIC
Experimental: as §1

Escherichia coli Juhl [20] = test: MIC by serial two-fold agar dilution, E. coli Juhl; format: cell-based; settings: Escherichia coli; Table 7; Mueller-Hinton agar; read-out: MIC
Experimental: as §1

[21] = test system: Pseudomonas aeruginosa A20601; test: MIC, aminoglycoside-resistant P. aeruginosa A20601; format: cell-based; settings: Pseudomonas aeruginosa, A20601; Table 9; inactivating enzymes AAC(3)-I, APH(3')-II; Mueller-Hinton agar; read-out: MIC
Experimental: as §1

[22] = test system: Staphylococcus aureus 209P; test: MIC by serial two-fold agar dilution, S. aureus 209P; format: cell-based; settings: Staphylococcus aureus, 209P; Table 7; Mueller-Hinton agar; read-out: MIC
Experimental: as §1

With `NC[C@@H]1O[C@H](O[C@H]2[C@@H](O)[C@H](O[C@@H]3[C@@H](O)[C@H](O)C[C@H](N)[C@H]3O[C@H]3O[C@H](CN)[C@@H](O)[C@H](O)[C@H]3N)O[C@@H]2CO)[C@H](N)[C@@H](O)[C@@H]1O` [Bu-2659A, 1-deamino-1-hydroxyneomycin B] the MIC [1] was over 100 µg/mL, the MIC [2] was 12.5 µg/mL (≈ 20.3 µM) and the MIC [3] was 25 µg/mL (≈ 40.6 µM). For the same molecule, the MIC [4] was over 100 µg/mL, the MIC [5] was 0.4 µg/mL (≈ 0.65 µM) and the MIC [6] was 50 µg/mL (≈ 81.2 µM). The MIC [7] was 25 µg/mL (≈ 40.6 µM), the MIC [8] was 3.1 µg/mL (≈ 5.04 µM) and the “protection in mice, in words” value ([9]; five experimental infections) was “excellent protection”. The “in vivo activity relative to neomycin, in terms of PD50” value ([9]; infections with S. aureus and S. pyogenes) was “about one-half”, the “in vivo activity compared with neomycin, in words” value ([9]; infections with three gram-negative bacteria) was “comparable to that of neomycin” and the MIC [10] was 50 µg/mL (≈ 81.2 µM). The “activity against aminoglycoside-resistant strains, in words” value [11] was “more active than neomycin, paromomycin and ribostamycin”, the MIC [12] was 0.1 µg/mL (≈ 0.162 µM) and the MIC [13] was 50 µg/mL (≈ 81.2 µM). It also gave an ED50 [14] of 1.1 mg/kg, an MIC (Escherichia coli ML 1630) of over 100 µg/mL and an ED50 (Proteus mirabilis A9906) of 2.5 mg/kg. The MIC [15] was 50 µg/mL (≈ 81.2 µM), the ED50 [16] was 0.63 mg/kg and the “acute toxicity compared with neomycin, in words” value (Acute toxicity in mice; all routes of administration) was “significantly less toxic than neomycin”. For the same molecule, the “toxicity relative to neomycin in terms of LD50 values” (Acute toxicity in mice; intravenous, intraperitoneal, subcutaneous) was “approximately 1/3”, the LD50 (Acute toxicity in mice; ip, intraperitoneal) was 460 mg/kg and the LD50 (Acute toxicity in mice; sc, subcutaneous) was 720 mg/kg. For the same molecule, the LD50 (Acute toxicity in mice; intravenous) was 110 mg/kg, the ED50 (Escherichia coli Juhl [17]) was 3.1 mg/kg and the MIC (Mycobacterium ranae) was 0.4 µg/mL (≈ 0.65 µM). For the same molecule, the “in vitro antibacterial activity, in words” value [18] was “highest activity among the five Bu-2659 components; also recorded: comparable to that of neomycin; also recorded: substantially the same level of antibacterial activity as neomycin B”, the MIC [19] was 0.8 µg/mL (≈ 1.3 µM) and the MIC (Escherichia coli Juhl [20]) was 3.1 µg/mL (≈ 5.04 µM). It also gave an MIC [21] of 6.3 µg/mL (≈ 10.2 µM) and an MIC [22] of 0.8 µg/mL (≈ 1.3 µM).
